For 79 compounds, IC50 results are on record in ChEMBL document CHEMBL3714766, “Tetrahydroisoquinoline compounds and their use as pyruvate dehydrogenase kinase inhibitors” (2015).

For one assay, the target named is T1, Pyruvate dehydrogenase kinase (Homo sapiens, UniProt Q15119+Q15120+Q16654+Q15118). In words: Inhibition of pyruvate dehydrogenase kinase in human PC3 cells incubated for 90 mins by phospho(Ser293)E1alpha MSP ELISA method. As to conditions: pc-3. In kind it is cell-based.
For the compound `C[C@H]1CCc2cc(-c3nc(Cl)nc4[nH]ccc34)ccc2N1C(=O)c1ccc(O)cc1O`, the 50% inhibitory concentration (IC50) worked out at 1000 nM. Still for that read-out and setting: the figure for `Cc1cc(S(=O)(=O)NCc2cccs2)cnc1-c1ccc2c(c1)CC[C@H](C)N2C(=O)c1ccc(O)cc1O` is 1000 nM; for `Cc1cc(N)cnc1-c1ccc2c(c1)CC[C@H](C)N2C(=O)c1ccc(O)cc1O` it is 1000 nM; for `COCCOc1ncc(C)c(-c2ccc3c(c2)CC[C@H](C)N3C(=O)c2ccc(O)cc2O)n1` it is 1000 nM.

Regarding `C[C@H]1CCc2cc(C(=O)N(C)Cc3ccc4ccccc4n3)ccc2N1C(=O)c1ccc(O)cc1O`, the IC50 amounted to 1000 nM. For the compound `CCNc1ccc(-c2ccc3c(c2)CC[C@H](C)N3C(=O)c2ccc(O)cc2O)c(C)n1`, the half-inhibitory concentration (IC50) came to 1000 nM. Regarding `O=C(c1ccc(O)cc1O)N1c2ccc(-c3nc(Cl)nc4[nH]ccc34)cc2CCC1c1cccnc1` (stereo not given), the IC50 stood at 1000 nM.

The compound `Cc1cnc(Cl)nc1-c1ccc2c(c1)CC[C@H](C)N2C(=O)c1cc(F)c(O)cc1O` came in with a half-maximal inhibitory concentration (IC50) of 1000 nM. On the same count and under the same terms, the figure for `Cc1sc2ncnc(-c3ccc4c(c3)CC[C@H](C)N4C(=O)c3ccc(O)cc3O)c2c1C` is 10000 nM; for `C[C@H]1CCc2cc(C(=O)N(C)Cc3ccc4nccnc4c3)ccc2N1C(=O)c1ccc(O)cc1O` it is 1000 nM; for `C[C@H]1CCc2cc(C(=O)N(C)Cc3cccc4cnccc34)ccc2N1C(=O)c1ccc(O)cc1O` it is 1000 nM.

Another assay addresses T1, Pyruvate dehydrogenase kinase. Put plainly: Binding affinity to pyruvate dehydrogenase kinase (unknown origin) by VER-00160364 probe based fluorescence polarization assay.
Conditions: not given
A general note: Fluorescence polarisation rises when a labelled molecule tumbles more slowly, as on binding a larger partner.
`C[C@H]1CCc2cc(-c3nc(Cl)nc4[nH]ccc34)ccc2N1C(=O)c1ccc(O)cc1O` yielded a concentration for half-maximal inhibition (IC50) of 1000 nM. On the same count and under the same terms, as for `Cc1cc(S(=O)(=O)NCc2cccs2)cnc1-c1ccc2c(c1)CC[C@H](C)N2C(=O)c1ccc(O)cc1O`, the figure is 10 nM.

`Cc1cc(N)cnc1-c1ccc2c(c1)CC[C@H](C)N2C(=O)c1ccc(O)cc1O` displayed a half-maximal inhibitory concentration (IC50) of 10 nM.

`COCCOc1ncc(C)c(-c2ccc3c(c2)CC[C@H](C)N3C(=O)c2ccc(O)cc2O)n1` returned an IC50 of 100 nM. On the same count and under the same terms, the figure for `C[C@H]1CCc2cc(C(=O)N(C)Cc3ccc4ccccc4n3)ccc2N1C(=O)c1ccc(O)cc1O` is 100 nM. On the same count and under the same terms, as for `CCNc1ccc(-c2ccc3c(c2)CC[C@H](C)N3C(=O)c2ccc(O)cc2O)c(C)n1`, the figure is 100 nM. On the same count and under the same terms, as for `O=C(c1ccc(O)cc1O)N1c2ccc(-c3nc(Cl)nc4[nH]ccc34)cc2CCC1c1cccnc1` (stereo not given), the figure is 100 nM; as for `Cc1cnc(Cl)nc1-c1ccc2c(c1)CC[C@H](C)N2C(=O)c1cc(F)c(O)cc1O`, 10 nM; as for `Cc1sc2ncnc(-c3ccc4c(c3)CC[C@H](C)N4C(=O)c3ccc(O)cc3O)c2c1C`, 100 nM. `C[C@H]1CCc2cc(C(=O)N(C)Cc3ccc4nccnc4c3)ccc2N1C(=O)c1ccc(O)cc1O` gave a half-inhibitory concentration (IC50) of 10 nM.

Consider `C[C@H]1CCc2cc(C(=O)N(C)Cc3cccc4cnccc34)ccc2N1C(=O)c1ccc(O)cc1O`, for which the IC50 is 10 nM. The same measure, in the same setting: the figure for `O=C(c1ccc(O)cc1O)N1c2ccccc2CCC1c1ccccn1` (stereo not given) is 1000 nM; for `Cc1nccnc1-c1ccc2c(c1)CC[C@H](C)N2C(=O)c1ccc(O)cc1O` it is 100 nM. The same measure, in the same setting: as for `C[C@H]1CCc2cc(-c3ccccc3Cl)ccc2N1C(=O)c1ccc(O)cc1O`, the figure is 1000 nM; as for `O=C(c1ccc(O)cc1O)N1c2ccc(-c3nc4ccc(Cl)cc4cc3CO)cc2CCC1c1cccnc1` (stereo not given), 100 nM; as for `CC(=O)N1CCN(S(=O)(=O)c2cnc(-c3ccc4c(c3)CC[C@H](C)N4C(=O)c3ccc(O)cc3O)c(C)c2)CC1`, 10 nM. Same read-out and setting: as for `C[C@H]1CCc2ccccc2N1C(=O)c1cc(F)c(O)cc1O`, the figure is 100 nM; as for `CC1CCc2cc(-c3ncccc3C(F)(F)F)ccc2N1C(=O)c1cc(Cl)c(O)cc1O` (stereo not given), 1000 nM; as for `CC(C)C(=O)Nc1ccc2c(c1)CCCN2C(=O)c1ccc(O)cc1O`, 1000 nM.

On to `Cc1cncnc1-c1ccc2c(c1)CCC(c1cccnc1)N2C(=O)c1ccc(O)cc1O` (stereo not given), for which the concentration for half-maximal inhibition (IC50) was determined as 10 nM. Same read-out and setting: the figure for `Cc1cnc(-c2ccc3c(c2)CCC(C)N3C(=O)c2cc(Cl)c(O)cc2O)n1C` (stereo not given) is 1000 nM; for `Cc1cc(S(=O)(=O)NCCN(C)C)cnc1-c1ccc2c(c1)CC[C@H](C)N2C(=O)c1ccc(O)cc1O` it is 10 nM; for `C[C@H]1CCc2cc(C(=O)N(C)C)ccc2N1C(=O)c1ccc(O)cc1O` it is 100 nM.

For `O=C(c1ccc2c(c1)CCCN2C(=O)c1ccc(O)cc1O)N1CCc2ccccc21`, the IC50 stood at 100 nM.

The compound `C[C@H]1CCc2cc(-c3nc4ccccc4nc3C(F)(F)F)ccc2N1C(=O)c1ccc(O)cc1O` displayed an IC50 of 100 nM. On the same count and under the same terms, as for `CC1CCc2cc(C(=O)N(C)Cc3cc4cc(F)ccc4[nH]3)ccc2N1C(=O)c1ccc(O)cc1O` (stereo not given), the figure is 100 nM; as for `COc1ccc(CN(C)C(=O)c2ccc3c(c2)CC[C@@H](C)N3C(=O)c2ccc(O)cc2O)cc1`, 10000 nM; as for `COc1cnc(Cl)nc1-c1ccc2c(c1)CCC(c1cccnc1)N2C(=O)c1ccc(O)cc1O` (stereo not given), 1000 nM. On the same count and under the same terms, the figure for `N#Cc1cccnc1-c1ccc2c(c1)CCCN2C(=O)c1ccc(O)cc1O` is 1000 nM. Still for that read-out and setting: the figure for `C[C@H]1CCc2cc(-c3ccncc3C(F)(F)F)ccc2N1C(=O)c1ccc(O)cc1O` is 100 nM.

For the compound `C[C@H]1CCc2cc(-c3nncc4ccccc34)ccc2N1C(=O)c1ccc(O)cc1O`, the IC50 is given as 100 nM. On the same count and under the same terms, the figure for `C[C@H]1CCc2cc(-c3ccc(-n4ccnc4)nn3)ccc2N1C(=O)c1ccc(O)cc1O` is 100 nM; for `Cc1c(-c2ccc3c(c2)CC[C@H](C)N3C(=O)c2ccc(O)cc2O)ccc2[nH]ncc12` it is 1000 nM; for `O=C(c1ccc(O)cc1O)N1c2ccccc2CCC1c1cccs1` (stereo not given) it is 1000 nM. On the same count and under the same terms, the figure for `C[C@H]1CCc2cc(-c3ccc(-c4ccccc4Cl)cn3)ccc2N1C(=O)c1ccc(O)cc1O` is 10000 nM; for `CNc1nnc(-c2ccc3c(c2)CC[C@H](C)N3C(=O)c2ccc(O)cc2O)c2ccccc12` it is 100 nM; for `Cn1nccc1-c1ccc2c(c1)CCCN2C(=O)c1ccc(O)cc1O` it is 100 nM. Consider `O=C(c1ccc(O)cc1O)N1c2ccccc2CCC1c1cccnc1` (stereo not given), for which the IC50 is reported as 100 nM. On the same count and under the same terms, as for `Cc1ncc(C)c(-c2ccc3c(c2)CC[C@H](C)N3C(=O)c2ccc(O)cc2O)n1`, the figure is 10 nM. On the same count and under the same terms, the figure for `Cc1cccnc1-c1ccc2c(c1)CCC(C)N2C(=O)c1ccc(O)cc1O` (stereo not given) is 100 nM; for `O=C(c1ccc(O)cc1O)N1c2ccccc2CC[C@@H]1c1cccnc1` it is 100 nM; for `CCOC(=O)c1nc(C)nc(-c2ccc3c(c2)CC[C@H](C)N3C(=O)c2ccc(O)cc2O)c1C` it is 1000 nM. `O=C(c1ccc(O)cc1O)N1CCCc2cc(-c3ncccc3Cl)ccc21` showed a half-maximal inhibitory concentration (IC50) of 1000 nM. On the same count and under the same terms, as for `C[C@H]1CCc2cc(-c3nccc4occc34)ccc2N1C(=O)c1ccc(O)cc1O`, the figure is 1000 nM. The same measure, in the same setting: the figure for `C[C@H]1CCc2cc(C(=O)O)ccc2N1C(=O)c1ccc(O)cc1O` is 10000 nM; for `CC1CCc2cc(Br)ccc2N1C(=O)c1ccc(O)cc1O` (stereo not given) it is 1000 nM.

`CCc1cc2ccccc2nc1-c1ccc2c(c1)CC[C@H](C)N2C(=O)c1ccc(O)cc1O` yielded a half-inhibitory concentration (IC50) of 1000 nM.

`O=C(c1ccc(O)cc1O)N1c2ccccc2CCC1c1ccn[nH]1` (stereo not given) had a 50% inhibitory concentration (IC50) of 100 nM. Same read-out and setting: as for `C[C@@H]1CCc2cc(C(=O)N(C)C)ccc2N1C(=O)c1ccc(O)cc1O`, the figure is 10000 nM; as for `C[C@H]1CCc2cc(-c3ncccc3Cl)ccc2N1C(=O)c1ccc(O)cc1O`, 100 nM; as for `C[C@H]1CCc2cc(-c3cccc(C#N)c3)ccc2N1C(=O)c1ccc(O)cc1O`, 1000 nM. Same read-out and setting: as for `CN(C(=O)c1ccc2c(c1)CCCN2C(=O)c1ccc(O)cc1O)c1cccc(F)c1`, the figure is 100 nM; as for `O=C(c1ccc2c(c1)CCCN2C(=O)c1ccc(O)cc1O)N1CCC1`, 1000 nM. The same measure, in the same setting: the figure for `Cc1cc(S(=O)(=O)N2CCOCC2)cnc1-c1ccc2c(c1)CC[C@H](C)N2C(=O)c1ccc(O)cc1O` is 10 nM; for `C[C@@H]1CCc2cc(F)ccc2N1C(=O)c1cc(Cl)c(O)cc1O` it is 10000 nM; for `C[C@H]1CCc2cc(-c3nc4ccccc4cc3CO)ccc2N1C(=O)c1ccc(O)cc1O` it is 100 nM. Take `C[C@H]1CCc2cc(C(=O)N(C)Cc3ccc(F)cc3)ccc2N1C(=O)c1ccc(O)cc1O`: the IC50 came out at 100 nM. `CC1CCc2cc(-c3ncccc3Cl)ccc2N1C(=O)c1ccc(O)cc1O` (stereo not given) had a concentration for half-maximal inhibition (IC50) of 100 nM. On the same count and under the same terms, as for `Cc1nc(C)c(-c2ccc3c(c2)CCC(C)N3C(=O)c2cc(Cl)c(O)cc2O)s1` (stereo not given), the figure is 1000 nM. Compound `CN(Cc1nc2ccccc2[nH]1)C(=O)c1ccc2c(c1)CCCN2C(=O)c1ccc(O)cc1O` returned an IC50 of 100 nM. Still for that read-out and setting: the figure for `O=C(c1ccc(O)cc1O)N1c2ccccc2CCC1CNC(=O)C(F)(F)F` (stereo not given) is 100 nM; for `CC1CCc2cc(C(=O)N(C)Cc3ccc(F)cc3)ccc2N1C(=O)c1ccc(O)cc1O` (stereo not given) it is 10 nM. Same read-out and setting: as for `Cc1nc(C)c(-c2ccc3c(c2)CCC(C)N3C(=O)c2ccc(O)cc2O)s1` (stereo not given), the figure is 10 nM; as for `C[C@H]1CCc2cc(-c3nc(C(N)=O)nc4ccccc34)ccc2N1C(=O)c1ccc(O)cc1O`, 100 nM; as for `CS(=O)(=O)NCC1CCc2ccccc2N1C(=O)c1ccc(O)cc1O` (stereo not given), 100 nM. `Cc1cnc(NC2CCCC2)nc1-c1ccc2c(c1)CC[C@H](C)N2C(=O)c1ccc(O)cc1O` yielded a 50% inhibitory concentration (IC50) of 1000 nM.

`C[C@H]1CCc2cc(-c3nc(-c4ccccc4)nc4ccccc34)ccc2N1C(=O)c1ccc(O)cc1O`: the 50% inhibitory concentration (IC50) turned out to be 1000 nM. On the same count and under the same terms, the figure for `C[C@H]1CCc2cc(-c3ncccc3CO)ccc2N1C(=O)c1ccc(O)cc1O` is 100 nM; for `CC1CCc2cc(-c3ncccc3C#N)ccc2N1C(=O)c1cc(Cl)c(O)cc1O` (stereo not given) it is 1000 nM. For the compound `C[C@H]1CCc2ccccc2N1C(=O)c1ccc(O)cc1O`, the IC50 is 100 nM.

Regarding `Cc1nccn1-c1ccc(-c2ccc3c(c2)CC[C@H](C)N3C(=O)c2ccc(O)cc2O)nn1`, the IC50 was 100 nM. Still for that read-out and setting: the figure for `COc1ccccc1CN(C)C(=O)c1ccc2c(c1)CCC(C)N2C(=O)c1ccc(O)cc1O` (stereo not given) is 100 nM. Still for that read-out and setting: the figure for `C[C@H]1CCc2cc(-c3ccc(-c4ccccc4)cn3)ccc2N1C(=O)c1ccc(O)cc1O` is 10000 nM; for `Cc1cc(S(=O)(=O)N2CCOCC2)cnc1-c1ccc2c(c1)CCC(c1cccnc1)N2C(=O)c1ccc(O)cc1O` (stereo not given) it is 10 nM; for `Cc1cccnc1-c1ccc2c(c1)CCCN2C(=O)c1cc(C(F)(F)F)c(O)cc1O` it is 10000 nM. Same read-out and setting: the figure for `CC1CCc2cc(C(=O)N3CCC3)ccc2N1C(=O)c1ccc(O)cc1O` (stereo not given) is 100 nM; for `C[C@@H]1CCc2ccccc2N1C(=O)c1cc(Cl)c(O)cc1O` it is 10000 nM.

On to `CN(CCN)C(=O)c1ccc2c(c1)CCCN2C(=O)c1ccc(O)cc1O`, for which the IC50 came out at 1000 nM. Still for that read-out and setting: as for `Cc1cc2cccc(C)c2nc1-c1ccc2c(c1)CC[C@H](C)N2C(=O)c1ccc(O)cc1O`, the figure is 1000 nM.

In general, IC50 refers to the point on the concentration scale where inhibition reaches its midpoint.
